From patent US7754722B2, “Piperazine derivatives and methods of use” (Merck Serono SA, priority 2002, dated 2010)

What follows are molecules tested against T1, FSH receptor (Homo sapiens, UniProt P23945) (assay: FSH assay: cAMP response element luciferase reporter in CHO cells expressing recombinant FSH receptor). Settings: agonist activity; CHO cells stably transfected with recombinant FSH receptor; luciferase luminescence; log-dose-response curves; incubation 37° C. for 3 hrs 30 min; read-out: ED50 (the source's name).
T1 construct: expressed in transfected cells; host or cells: CHO (Chinese Hamster Ovary) cells, stably transfected, carrying a cAMP response element-luciferase reporter
T1 sequence (P23945 18-695): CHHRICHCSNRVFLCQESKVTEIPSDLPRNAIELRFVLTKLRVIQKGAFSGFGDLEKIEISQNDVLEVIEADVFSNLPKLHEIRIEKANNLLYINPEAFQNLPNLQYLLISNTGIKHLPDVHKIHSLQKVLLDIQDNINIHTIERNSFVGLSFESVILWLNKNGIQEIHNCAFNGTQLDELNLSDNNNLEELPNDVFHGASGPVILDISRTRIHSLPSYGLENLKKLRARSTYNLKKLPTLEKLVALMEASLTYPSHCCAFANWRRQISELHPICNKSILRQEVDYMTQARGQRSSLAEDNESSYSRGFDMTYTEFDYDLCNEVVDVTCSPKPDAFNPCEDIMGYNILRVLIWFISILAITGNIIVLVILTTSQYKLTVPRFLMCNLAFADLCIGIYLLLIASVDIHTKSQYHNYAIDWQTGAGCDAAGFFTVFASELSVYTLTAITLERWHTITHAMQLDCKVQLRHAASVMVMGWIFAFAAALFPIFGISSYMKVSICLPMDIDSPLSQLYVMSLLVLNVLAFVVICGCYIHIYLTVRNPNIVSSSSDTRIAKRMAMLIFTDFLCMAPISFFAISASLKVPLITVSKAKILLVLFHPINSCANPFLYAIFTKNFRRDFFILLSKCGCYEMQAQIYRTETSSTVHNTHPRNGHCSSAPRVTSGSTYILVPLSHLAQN
Format: cell-based
Procedure: Compounds of the invention were tested in the following assay.
All compounds of the invention were stored in 96-well deepwell plates in DMSO at a nominal concentration of 10 μM. Compounds of the invention were screened for agonist activity at the FSH receptor using the recombinant FSH receptor stably transfected and expressed in Chinese Hamster Ovary Cells (CHO cells) essentially as described in the work by Kelton, et al. Molecular and Cellular Endocrinology, 1992, 89, 141-151). […] Thus an agonist at the FSH receptor increases cAMP in the cell which results in activation of the CREB (cAMP) response element binding protein). The substrate for the enzyme (Packard Instrument Company 800 Research Parkway, Meriden, Conn. 06450, USA) was added to the cells after appropriate incubation with the compounds or FSH and the amount of luciferase expressed was measured by quantitating the luminescence produced by the enzyme using a TopCount scintillation/luminescence counter running in single photon counting mode. A compound which acts as an agonist at the receptor should produce light from the treated cells in proportion to its concentration within the incubation. Luminescence should be saturable at high concentrations of the compound.
The compounds of the invention, in deepwell plates (Master plates) as indicated above were loaded on the robotic deck along with the appropriate number of assay plates and daughter plates. A 10 μl aliquot from each master plate was transferred to the corresponding daughter plate and 90 μl of DME/F12 was added and mixed within each well. 20 μl was then removed from the daughter plate and dispensed into the assay plate. After addition of an aliquot of FSH (equivalent to an EC100 response for this hormone to each of three wells on the plate, 80 μl of media (DME/F 12±2% serum) and 100 μl aliquot of cells (4×10^5/ml in the same media) were added and the plate incubated at 37° C. for 3 hrs 30 min. At this time the plate was removed from the incubator and media in each well was aspirated and the cells adhering to the bottom of the plate washed with 300 μl PBS containing 1 mM Ca^2+ and 1 mM Mg^2+. The PBS was aspirated and 100 μl PBS added to each well. 100 μl of Lucite (prepared as described by the manufacturer) was added to each well and the plate was shaken gently for 40 seconds prior to placement in the TopCount plate reader. After allowing 3.5 minutes for the plate to dark-adapt within the machine, the amount of luminescence generated was quantitated using Single Photon Counting mode. The data was transmitted electronically from the TopCount to the robot processing computer terminal and was renamed with an ID corresponding to the original master plate ID. […] LDR (log-dose-response) curves were generated for these compounds in CHO cells containing the FSH receptor and these curves were also compared with those in either cells expressing a different Gs linked receptor or in cells lacking any transfected receptor.
Molecule `CCCCCCN1CCN(S(=O)(=O)c2cccs2)[C@H](C(=O)Nc2ccc3c(c2)c2ccccc2n3CC)C1` [4-hexyl-1-(thiophene-2-sulfonyl)-piperazine-2-carboxylic acid (9-ethyl-9H-carbazol-3-yl) amide] has an EC50 of 380 nM.
`CCc1cocc1CN1CCN(S(=O)(=O)c2cccs2)[C@H](C(=O)Nc2ccc3c(c2)c2ccccc2n3CC)C1` [4-(4-ethyl-furan-3-ylmethyl)-1-(thiophene-2-sulfonyl)-piperazine-2-carboxylic acid (9-ethyl-9H-carbazol-3-yl)-amide] showed an EC50 of 1600 nM.
Work on `CCCCC(=O)N1CCN(S(=O)(=O)c2cccs2)[C@H](C(=O)Nc2ccc3c(c2)c2ccccc2n3CC)C1` [4-pentanoyl-1-(thiophene-2-sulfonyl)-piperazine-2-carboxylic acid (9-ethyl-9H-carbazol-3-yl) amide] yielded an EC50 of 402 nM.
In the case of `CCCCCCN1CCN(S(=O)(=O)c2ccccc2)[C@H](C(=O)Nc2ccc3c(c2)nc(-c2cccnc2)n3CC)C1` [1-benzenesulfonyl-4-hexyl-piperazine-2-carboxylic acid (1-ethyl-2-pyridin-3-yl-1H-benzoimidazol-5-yl)amide], the EC50 is reported as 150 nM.
`CCCCCN1CCN(S(=O)(=O)c2cccs2)[C@H](C(=O)Nc2ccc3c(c2)nc(-c2cccnc2)n3CC)C1` [4-pentyl-1-thiophene-2-sulfonyl)-piperazine-2-carboxylic acid (1-ethyl-2-pyridin-3-yl-1H-benzoimidazol-5-yl)amide] was tested, and the EC50 was 150 nM.
In the case of `CCCCCN1CCN(S(=O)(=O)c2cccs2)C(C(=O)Nc2ccc3[nH]c4c(c3c2)CCNC4=O)C1` (stereo not drawn) [4-pentyl-1-(thiophene-2-sulfonyl)-piperazine-2-carboxylic acid (1-oxo-2,3,4,9-tetrahydro-1H-beta-carbolin-6-yl)amide], the EC50 is reported as 220 nM.
`CCOC(=O)CN1CCN(S(=O)(=O)c2cccs2)[C@H](C(=O)Nc2ccc3c(c2)c2ccccc2n3CC)C1` [3-(9-ethyl-9H-carbazol-3-ylcarbamoyl)-4-(thiophene-2-sulfonyl)-piperazin-1-yl] acetic acid ethyl ester] showed an EC50 of 610 nM.
In the case of `CCCCCNC(=O)N1CCN(S(=O)(=O)c2cccs2)[C@H](C(=O)Nc2ccc3c(c2)c2ccccc2n3CC)C1` [4-(thiophene-2-sulfonyl)-piperazine-1,3-dicarboxylic acid 3-[(9-ethyl-9H-carbazol-3-yl)amide]-1-pentylamide], the EC50 is reported as 63 nM.
`CCCCCCN1CCN(S(=O)(=O)c2cccs2)[C@H](C(=O)Nc2ccc3c(c2)nc(-c2ccncc2)n3CC)C1` [4-hexyl-1-(thiophene-2-sulfonyl)-piperazine-2-carboxylic acid (1-ethyl-2-pyridin-4-yl-1H-benzoimidazol-5-yl)amide] was tested, and the EC50 was 111 nM.
With `CCCCCNC(=O)N1CCN(S(=O)(=O)c2cn(C)cn2)[C@H](C(=O)Nc2ccc3c(c2)c2ccccc2n3CC)C1` [4-(1-methyl-1H-imidazole-4-sulfonyl)-piperazine-1,3-dicarboxylic acid 3-[(9-ethyl-9H-carbazol-3-yl)-amide]1-pentylamide] the EC50 was 3160 nM.
`CCCCCCN1CCN(S(=O)(=O)c2cccs2)[C@H](C(=O)Nc2ccc3c(c2)nc(-c2cccnc2)n3CC)C1` [4-hexyl-1-(thiophene-2-sulfonyl)-piperazine-2-carboxylic acid (1-ethyl-2-pyridinyl-3-yl-1H-benzoimidazole-5-yl)-amide)] was tested, and the EC50 was 40 nM.
With `CCCCCCCN1CCN(S(=O)(=O)c2cccs2)[C@H](C(=O)Nc2ccc3c(c2)nc(-c2cccnc2)n3CC)C1` [4-heptyl-1-(thiophene-2-sulfonyl)-piperazine-2-carboxylic acid (1-ethyl-2-pyridin-3-yl-1H-benzoimidazol-5-yl)-amide] the EC50 was 94 nM.
For `CCn1c2ccccc2c2cc(NC(=O)[C@@H]3CN(C(=O)NCCc4c[nH]cn4)CCN3S(=O)(=O)c3cccs3)ccc21` [4-(thiophene-2-sulfonyl)-piperazine-1,3-dicarboxylic acid 3-[(9-ethyl-9H-carbazol-3-yl)-amide] 1-{[2-(1H-imidazol-4-yl)-ethyl]-amide}], the EC50 was 6250 nM.
For `CCCCCNC(=O)N1CCN(S(=O)(=O)c2cccs2)[C@H](C(=O)Nc2cccc(-c3ccncc3)c2)C1` [4-(thiophene-2-sulfonyl)-piperazine-1,3-dicarboxyclic acid 1-pentylamide 3-[(3-pyridin-4-yl-phenyl)-amide]], the EC50 was 5000 nM.
In the case of `CCn1c2ccccc2c2cc(NC(=O)[C@@H]3CN(CCCSC)CCN3S(=O)(=O)c3cccs3)ccc21` [4-(3-methylsulfanyl-propyl)-1-(thiophene-2-sulfonyl)-piperazine-2-carboxylic acid (9-ethyl-9H-carbazol-3-yl)-amide], the EC50 is reported as 1700 nM.
In the case of `CCOC(=O)CNC(=O)N1CCN(S(=O)(=O)c2cccs2)[C@H](C(=O)Nc2ccc3c(c2)c2ccccc2n3CC)C1` [{[3-(9-ethyl-9H-carbazol-3-ylcarbamoyl)-4-(thiophene-2-sulfonyl)-piperazine-1-carbonyl]-amino}acetic acid ethyl ester], the EC50 is reported as 408 nM.
`CCCCCCN1CCN(S(=O)(=O)c2ccccc2F)[C@H](C(=O)Nc2ccc3c(c2)nc(-c2cccnc2)n3CC)C1` [1-(2-fluoro-benzenesulfonyl)-4-hexyl-piperazine-2-carboxylic acid (1-ethyl-2-pyridin-3-yl-1H-benzoimidazol-5-yl)amide] gave an EC50 of 74 nM.
With `CCn1c2ccccc2c2cc(NC(=O)[C@@H]3CN(C(=O)NCCOC)CCN3S(=O)(=O)c3cccs3)ccc21` [4-(thiophene-2-sulfonyl)-piperazine-1,3-dicarboxylic acid 3-[(9-ethyl-9H-carbazol-3-yl)-amide]1-{(2-methoxy-ethyl)-amide]] the EC50 was 1610 nM.
Work on `CCCCCCN1CCN(S(=O)(=O)N(C)C)C(C(=O)Nc2ccc3c(c2)nc(-c2cccnc2)n3CC)C1` (stereo not drawn) [1-dimethylsulfamoyl-4-hexyl-piperazine-2-carboxylic acid (1-ethyl-2-pyridin-3-yl-1H-benzoimidazol-5-yl) amide] yielded an EC50 of 242 nM.
For `CCCCCCCN1CCN(S(=O)(=O)c2cccs2)C(C(=O)Nc2ccc3[nH]c4c(c3c2)CCNC4=O)C1` (stereo not drawn) [4-heptyl-1-(thiophene-2-sulfonyl)-piperazine-2-carboxylic acid (1-oxo-2,3,4,9-tetrahydro-1H-beta-carbolin-6-yl)amide], the EC50 was 1200 nM.
`CCCCCCN1CCN(S(=O)(=O)CCCC)[C@H](C(=O)Nc2ccc3c(c2)nc(-c2cccnc2)n3CC)C1` [1-(butane-1-sulfonyl)-4-hexyl-piperazine-2-carboxylic acid (1-ethyl-2-pyridin-3-yl-1H-benzoimidazol-5-yl)amide] showed an EC50 of 170 nM.
With `CCCCCCN1CCN(S(=O)(=O)c2ccc(F)cc2)[C@H](C(=O)Nc2ccc3c(c2)nc(-c2cccnc2)n3CC)C1` [1-(4-fluoro-benzenesulfonyl)-4-hexyl-piperazine-2-carboxylic acid (1-ethyl-2-pyridin-3-yl-1H-benzoimidazol-5-yl)amide] the EC50 was 167 nM.
Molecule `CCCCCCN1CCN(S(=O)(=O)c2cccs2)[C@H](C(=O)Nc2ccc3[nH]c4c(c3c2)CCNC4=O)C1` [4-hexyl-1-(thiophene-2-sulfonyl)-piperazine-2-carboxylic acid (1-oxo-2,3,4,9-tetrahydro-1H-beta-carbolin-6-yl)-amide] has an EC50 of 978 nM.
Molecule `CCCCCNC(=O)N1CCN(S(=O)(=O)N(C)C)[C@H](C(=O)Nc2ccc3c(c2)c2ccccc2n3CC)C1` [4-dimethylsulfamoyl-piperazine-1,3-dicarboxylic acid 3-[(9-ethyl-9H-carbazol-3-yl)-amide]1-pentylamide] has an EC50 of 403 nM.
